Laboratory results taken from patent US8486606B2, “Acrylate derivative, haloester derivative, polymer compound and photoresist composition” (Kuraray Co., Ltd., priority 2008, dated 2013).

Test: Evaluation of solubility at 25° C. in organic solvent
Assay type: physicochemical
Description: A solubility of 2-methacryloyloxyacetoxy-4,5-oxathiatricyclo[4.2.1.0^3,7]nonane-5,5-dioxide obtained in Example 2 in tetrahydrofuran was measured according to the following operation.
1 g of a sample to be used for the evaluation of solubility was prepared. 1 g of an organic solvent described in Table 1 and the foregoing sample were mixed at 25° C., and the mixture was stirred at 25° C. for 10 minutes as it was. An insoluble matter was filtered out from the obtained mixed solution, and the organic solvent was distilled off from the filtrate. Subsequently, the residue was dried under reduced pressure for 5 hours, thereby obtaining the sample in the saturated solution. A mass of the subject sample was measured, and its solubility was calculated according to the following expression. Solubility(% by mass)=100×(Mass of the sample in the saturated solution)/(Mass of the saturated solution)
The experiment and evaluation of solubility were carried out in the same manner as in Example 7, except that in Example 7, the sample and the organic solvent were changed to those shown in Table 1 or Table 2.

[1] = organic solvent: Methyl ethyl ketone
[2] = organic solvent: Tetrahydrofuran

`C=C(C)C(=O)OCC(=O)OC1C2CC3C1OS(=O)(=O)C3C2` (stereo not drawn) [Example 2, 2-methacryloyloxyacetoxy-4,5-oxathiatricyclo[4.2.1.0^3,7]nonane-5,5-dioxide] gave a Solubility [1] of 45.5 % by mass and a Solubility [2] of 48.1 % by mass.
For `C=C(C)C(=O)OCC(=O)OC1C2CC3C(=O)OC1C3O2` (stereo not drawn) [reference compound], the Solubility [1] was 4.2 % by mass and the Solubility [2] was 7.8 % by mass.
`C=C(C)C(=O)OCC(=O)OC1C2CC3C(O2)C1OS3(=O)=O` (stereo not drawn) [Example 4, 5-methacryloyloxyacetoxy-3,7-dioxa-2-thiatricyclo[4.2.1.0^4,8]nonane-2,2-dioxide] gave a Solubility [1] of 30.8 % by mass and a Solubility [2] of 31.9 % by mass.
